Tested on: patients with fasting triglyceride levels >200 mg/dl and <500 mg/dl despite statin therapy
Assay: 12-week study: lipid profile (TC, LDL-C, HDL-C, non-HDL-C, VLDL-C, VLDL-TG, RLP-C)
Assay type: in vivo, human
Conditions: for Non-HDL-C, Diff from pbo (Hodges-Lehmann median difference) / Non-HDL-C, EOT (Week 12 endpoint) median / LDL-C Median % chg from BL / LDL-C, Diff from pbo (Hodges-Lehmann median difference) / LDL-C, EOT (Week 12 endpoint) median / Non-HDL-C Median % chg from BL / LDL-C Diff from pbo (median % chg, Hodges-Lehmann) / LDL-C EOT Median / Non-HDL-C Diff from pbo (median % chg, Hodges-Lehmann) / Non-HDL-C EOT Median: AMR 101 4 g + statin
Text: Parameters (a)-(z) can be measured in accordance with any clinically acceptable methodology. For example, triglycerides, total cholesterol, HDL-C and fasting blood sugar can be sample from serum and analyzed using standard photometry techniques. VLDL-TG, LDL-C and VLDL-C can be calculated or determined using serum lipoprotein fractionation by preparative ultracentrifugation and subsequent quantitative analysis by refractometry or by analytic ultracentrifugal methodology. Apo A1, Apo B and hsCRP can be determined from serum using standard nephelometry techniques. Lipoprotein (a) can be determined from serum using standard turbidimetric immunoassay techniques. LDL particle number and particle size can be determined using nuclear magnetic resonance (NMR) spectrometry. Remnants lipoproteins and LDL-phospholipase A2 can be determined from EDTA plasma or serum and serum, respectively, using enzymatic immunoseparation techniques. Oxidized LDL, intercellular adhesion molecule-1 and interleukin-2 levels can be determined from serum using standard enzyme immunoassay techniques. These techniques are described in detail in standard textbooks, for example Tietz Fundamentals of Clinical Chemistry, 6th Ed. (Burtis, Ashwood and Borter Eds.), WB Saunders Company.
A multi-center, placebo-controlled, randomized, double-blind, 12-week study was performed to evaluate the efficacy and safety of >96% E-EPA in patients with fasting triglyceride levels >200 mg/dl and <500 mg/dl despite statin therapy (the mean of two qualifying entry values needed to be >185 mg/dl and at least one of the values needed to be >200 mg/dl). The primary objective of the study was to determine the efficacy of >96% E-EPA 2 g daily and 4 g daily, compared to placebo, in lowering fasting TG levels in patients with high risk for cardiovascular disease and with fasting TG levels 200 mg/dl and <500 mg/dl, despite treatment to LDL-C goal on statin therapy.
The secondary objectives of this study were the following: • 1. To determine the safety and tolerability of >96% E-EPA 2 g daily and 4 g daily; • 2. To determine the effect of >96% E-EPA on lipid and apolipoprotein profiles including total cholesterol (TC), non-high-density lipoprotein cholesterol (non-HDL-C), low density lipoprotein cholesterol (LDL-C), high density lipoprotein cholesterol (HDL-C), and […]; • 3. To determine the effect of >96% E-EPA on lipoprotein associated phospholipase A2 (Lp-PLA2) from baseline to week 12; • 4. To determine the effect of >96% E-EPA on low-density lipoprotein (LDL) particle number and size; • 5. To determine the effect of >96% E-EPA on oxidized LDL; • 6. To determine the effect of >96% E-EPA on fasting plasma glucose (FPG) and hemoglobin A1c (HbA1c); • 7. To determine the effect of >96% E-EPA on insulin resistance; • 8. To determine the effect of >96% E-EPA on high-sensitivity C-reactive protein (hsCRP); • 9. To determine the effects of >96% E-EPA 2 g daily and 4 g daily on the incorporation of fatty acids into red blood cell membranes and into plasma phospholipids; • 10. To explore the relationship between baseline fasting TG levels and the reduction in fasting TG levels; and • 11. To explore the relationship between changes of fatty acid concentrations in plasma and red blood cell membranes, and the reduction in fasting TG levels.
The primary efficacy variable for the double-blind treatment period was percent change in TG from baseline to Week 12 endpoint. […]

[1] = Diabetes No, Week 12 endpoint, MITT
[2] = Diabetes Yes, Week 12 endpoint, MITT
[3] = Non-statin Washout No, Week 12 endpoint, MITT
[4] = Non-statin Washout Yes, Week 12 endpoint, MITT
[5] = baseline TG tertile Highest (≥289.5 mg/dL), Week 12 endpoint, MITT
[6] = baseline TG tertile Lowest (<230.5 mg/dL), Week 12 endpoint, MITT
[7] = baseline TG tertile Middle (230.5 to <289.5 mg/dL), Week 12 endpoint, MITT
[8] = AMR101 4 g/d + statin, Week 12 endpoint, MITT
[9] = AMR101 4 g/d + statin, percent change from baseline to Week 12 endpoint, MITT
[10] = IPE 4 g/day (n = 216), 12 weeks, patients with lipoprotein data
[11] = IPE 4 g/day vs placebo, 12 weeks, Hodges-Lehmann median

Structure (SMILES): CC/C=C\C/C=C\C/C=C\C/C=C\C/C=C\CCCC(=O)OCC [AMR101, ethyl eicosapentaenoate]
- Non-HDL-C, Diff from pbo (Hodges-Lehmann median difference) (Atorva subgroup, MITT): −13.5
- Non-HDL-C, EOT (Week 12 endpoint) median (Atorva subgroup, MITT): 122.0
- LDL-C Median % chg from BL (Rosuva subgroup, MITT): −3.8%
- LDL-C, Diff from pbo (Hodges-Lehmann median difference) (Rosuva subgroup, MITT): −14.8
- LDL-C, EOT (Week 12 endpoint) median (Rosuva subgroup, MITT): 82.5
- Non-HDL-C Median % chg from BL (Rosuva subgroup, MITT): −5.5%
- Non-HDL-C, Diff from pbo (Hodges-Lehmann median difference) (Rosuva subgroup, MITT): −20.0
- Non-HDL-C, EOT (Week 12 endpoint) median (Rosuva subgroup, MITT): 118.0
- LDL-C Median % chg from BL (Simva subgroup, MITT): 1.5%
- LDL-C, Diff from pbo (Hodges-Lehmann median difference) (Simva subgroup, MITT): −5.4
- LDL-C, EOT (Week 12 endpoint) median (Simva subgroup, MITT): 83.0
- Non-HDL-C Median % chg from BL (Simva subgroup, MITT): −4.3%
- Non-HDL-C, Diff from pbo (Hodges-Lehmann median difference) (Simva subgroup, MITT): −11.1
- Non-HDL-C, EOT (Week 12 endpoint) median (Simva subgroup, MITT): 125.0
- LDL-C Median % chg from BL (Statin Potency High, MITT): 5.4%
- LDL-C, Diff from pbo (Hodges-Lehmann median difference) (Statin Potency High, MITT): −2.9
- LDL-C, EOT (Week 12 endpoint) median (Statin Potency High, MITT): 82.0
- Non-HDL-C Median % chg from BL (Statin Potency High, MITT): −6.3%
- Non-HDL-C, Diff from pbo (Hodges-Lehmann median difference) (Statin Potency High, MITT): −15.8
- Non-HDL-C, EOT (Week 12 endpoint) median (Statin Potency High, MITT): 118
- LDL-C Median % chg from BL (Statin Potency Low, MITT): 7.8%
- LDL-C, Diff from pbo (Hodges-Lehmann median difference) (Statin Potency Low, MITT): 12.4
- LDL-C, EOT (Week 12 endpoint) median (Statin Potency Low, MITT): 84.5
- Non-HDL-C Median % chg from BL (Statin Potency Low, MITT): −1.4%
- Non-HDL-C, Diff from pbo (Hodges-Lehmann median difference) (Statin Potency Low, MITT): 2.4
- Non-HDL-C, EOT (Week 12 endpoint) median (Statin Potency Low, MITT): 131
- LDL-C Median % chg from BL (Statin Potency Medium, MITT): −2.2%
- LDL-C, Diff from pbo (Hodges-Lehmann median difference) (Statin Potency Medium, MITT): −10.0
- LDL-C, EOT (Week 12 endpoint) median (Statin Potency Medium, MITT): 84.0
- Non-HDL-C Median % chg from BL (Statin Potency Medium, MITT): −4.3%
- Non-HDL-C, Diff from pbo (Hodges-Lehmann median difference) (Statin Potency Medium, MITT): −13.9
- Non-HDL-C, EOT (Week 12 endpoint) median (Statin Potency Medium, MITT): 124
- LDL-C Diff from pbo (median % chg, Hodges-Lehmann) [1]: −5.3%
- LDL-C EOT Median [1]: 83.5 mg/dL
- LDL-C Median % chg from BL [1]: 1.4%
- Non-HDL-C Diff from pbo (median % chg, Hodges-Lehmann) [1]: −11.3′ %
- Non-HDL-C EOT Median [1]: 126 mg/dL
- Non-HDL-C Median % chg from BL [1]: −0.9%
- LDL-C Diff from pbo (median % chg, Hodges-Lehmann) [2]: −6.3%
- LDL-C EOT Median [2]: 83.0 mg/dL
- LDL-C Median % chg from BL [2]: 2.0%
- Non-HDL-C Diff from pbo (median % chg, Hodges-Lehmann) [2]: −14.4%
- Non-HDL-C EOT Median [2]: 121 mg/dL
- Non-HDL-C Median % chg from BL [2]: −5.5%
- LDL-C Diff from pbo (median % chg, Hodges-Lehmann) [3]: −5.1%
- LDL-C EOT Median [3]: 83.5 mg/dL
- LDL-C Median % chg from BL [3]: 2.5%
- Non-HDL-C Diff from pbo (median % chg, Hodges-Lehmann) [3]: −4.8%
- Non-HDL-C EOT Median [3]: 122 mg/dL
- Non-HDL-C Median % chg from BL [3]: −4.9%
- LDL-C Diff from pbo (median % chg, Hodges-Lehmann) [4]: −7.5%
- LDL-C EOT Median [4]: 80.0 mg/dL
- LDL-C Median % chg from BL [4]: −1.4%
- Non-HDL-C Diff from pbo (median % chg, Hodges-Lehmann) [4]: −14.4%
- Non-HDL-C EOT Median [4]: 124 mg/dL
- Non-HDL-C Median % chg from BL [4]: −5.4%
- LDL-C Diff from pbo (median % chg, Hodges-Lehmann) [5]: 0%
- LDL-C EOT Median [5]: 83.0
- LDL-C Median % chg from BL [5]: 4.8%
- Non-HDL-C Diff from pbo (median % chg, Hodges-Lehmann) [5]: −17.6%
- Non-HDL-C EOT Median [5]: 130
- Non-HDL-C Median % chg from BL [5]: −6.9%
- LDL-C Diff from pbo (median % chg, Hodges-Lehmann) [6]: −12.2%
- LDL-C EOT Median [6]: 83.0
- LDL-C Median % chg from BL [6]: −3.9%
- Non-HDL-C Diff from pbo (median % chg, Hodges-Lehmann) [6]: −13.8%
- Non-HDL-C EOT Median [6]: 118
- Non-HDL-C Median % chg from BL [6]: −2.0%
- LDL-C Diff from pbo (median % chg, Hodges-Lehmann) [7]: −5.8%
- LDL-C EOT Median [7]: 82.5
- LDL-C Median % chg from BL [7]: 2.1%
- Non-HDL-C Diff from pbo (median % chg, Hodges-Lehmann) [7]: −9.5%
- Non-HDL-C EOT Median [7]: 124
- Non-HDL-C Median % chg from BL [7]: −4.0%
- HDL-C Week 12 EP Median (IQR) (AMR101 4 g/d + statin, MITT): 37.0 (13.0) mg/dL
- LDL-C Week 12 EP Median (IQR) (AMR101 4 g/d + statin, MITT): 83.0 (31.0) mg/dL
- Non-HDL-C Week 12 EP Median (IQR) (AMR101 4 g/d + statin, MITT): 122.0 (39.0) mg/dL
- RLP-C Week 12 EP Median (IQR) (AMR101 4 g/d + statin, MITT): 10.0 (6.0) mg/dL
- Total cholesterol Week 12 EP Median (IQR) (AMR101 4 g/d + statin, MITT): 162.0 (38.0) mg/dL
- VLDL-C Week 12 EP Median (IQR) (AMR101 4 g/d + statin, MITT): 38.0 (22.0) mg/dL
- VLDL-TG Week 12 EP Median (IQR) (AMR101 4 g/d + statin, MITT): 147.0 (88.0) mg/dL
- HDL-C Percent change from Baseline Median (IQR) [8]: −1.0 (18.2) %
- LDL-C Percent change from Baseline Median (IQR) [8]: 1.5 (26.6) %
- Non-HDL-C Percent change from Baseline Median (IQR) [8]: −5.0 (21.3) %
- RLP-C Percent change from Baseline Median (IQR) [8]: −24.0 (45.5) %
- Total cholesterol Percent change from Baseline Median (IQR) [8]: −3.2 (16.8) %
- VLDL-C Percent change from Baseline Median (IQR) [8]: −12.1 (47.9) %
- VLDL-TG Percent change from Baseline Median (IQR) [8]: −19.2 (46.2) %
- HDL-C Difference from placebo Estimated median [9]: −4.5%
- LDL-C Difference from placebo Estimated median [9]: −6.2%
- Non-HDL-C Difference from placebo Estimated median [9]: −13.6%
- RLP-C Difference from placebo Estimated median [9]: −25.8%
- Total cholesterol Difference from placebo Estimated median [9]: −12.0%
- VLDL-C Difference from placebo Estimated median [9]: −24.4%
- VLDL-TG Difference from placebo Estimated median [9]: −26.5%
- HDL-C, Change From Baseline, % (median) [10]: −2.2%
- HDL-C, End of Treatment (median) [10]: 36.5 mg/dL
- LDL-C, Change From Baseline, % (median) [10]: 2.1%
- LDL-C, End of Treatment (median) [10]: 83.0 mg/dL
- Non-HDL-C, Change From Baseline, % (median) [10]: −5.1%
- Non-HDL-C, End of Treatment (median) [10]: 122.0 mg/dL
- HDL-C, Median Change From Baseline IPE 4 g/day vs Placebo, % [11]: −5.0%
- LDL-C, Median Change From Baseline IPE 4 g/day vs Placebo, % [11]: −5.2%
- Non-HDL-C, Median Change From Baseline IPE 4 g/day vs Placebo, % [11]: −13.5%
